Where two headings read alike, the source gives them in different places. Where a SMILES comes first, the peptide text is derived from it. Where no end group is shown, it is not given here. The star is where a group is joined. Cbz = O=C(OCc1ccccc1)*
Tests used:
B16-F10 cells = test: B16-F10 tumour growth and metastasis in TRB3 knockdown KK-Ay mice given 3-MA or MG132; format: in vivo; details: KK-Ay/TRB3-KD mice, B16-F10 s.c. or i.v.; 3-MA 30 mg kg^−1 per day or MG132 2.5 mg kg^−1 twice a week i.p.; n=6 per group; Supplementary Fig. 4g,h
Method: Seven-week-old KK-Ay mice were i.p. injected with TRB3-shRNA lentiviral particles (2 × 10^5 plaque-forming unit) to generate KK-Ay/TRB3-KD mice; over 75% depletion of TRB3 in target tissues (lungs and liver) was considered as effectively knocking down. 3-MA (30 mg kg^−1 per day) or MG132 (2.5 mg kg^−1 twice a week) was i.p. injected to the KK-Ay/TRB3-KD mice, from day 9 after tumour inoculation to the time of being killed. The evaluation of tumour growth and metastasis was described in the section of ‘Mouse Models for Tumour Growth and Metastasis'.
control-shRNA. Data are the summarized fold changes of proteins (control-
shRNA/TRB3-shRNA1) (upper) and representative spots showing
differentially expressed EGFR (framed) (lower). Data are representative of 2
independent assays. (e) The xenograft tumours express higher pro-
metastasis and pro-EMT factors in KK-Ay mice than that in C57 BL/6 mice.
Data are representative immunoblots of 4 independent assays. (f) The liver
and lung tissues express higher pro-metastasis and pro-EMT factors in
DMBA-treated KK-Ay mice than that in DMBA-treated C57 BL/6. Data are
representative immunoblots of 4 independent assays. (g,h) Suppressing
autophagy or UPS reverses the antitumour effect of TRB3 knockdown. TRB3
knockdown KK-Ay mice were s.c. injected with B16-F10 cells ([…]) or i.v. […]
Statistical significance was determined by Student’s t-test; *P<0.05, **P<0.01,

[1] = test system: TRB3-silenced HepG2 cells; test: Protein turnover assay in TRB3-silenced HepG2 cells with degradation inhibitors; format: cell-based, human; details: inhibitor 12 h, immunoblot, Fig. 3f
Method: Figure 3 Enhanced TRB3 compromises selective autophagy and clearance of UPS. (a) BEAS-2B cells were infected with TRB3-Myc-adenovirus expressing Myc-Tagged TRB3 with an independently expressing GFP. GFP-adenovirus was used as control. Indicated molecules were detected by immunoblotting. Data are representatives of four independent assays. (b) TRB3-silenced cells were treated with IGF-1 (100 nM) for 12 h and indicated proteins were detected by immunoblotting. Data are representatives of four independent assays. (c) Control or TRB3-silenced HepG2 cells were infected with adenovirus with mRFP-GFP-LC3-PE. After 24 h, the cells were treated with IGF-1 (100 nM) for 12 h and the flux rate of autophagy was detected with Live Cell Imaging Microscopy. Data are schematic drawing of the autophagy process (upper) and microscopy images showing red-coloured autophagolysosomes or red/green double-coloured autophagosomes (lower). Scale bar, 10 μm. See also Supplementary Movies 1–6. (d) Silencing TRB3 increased the number of autophagosomes (Avi) and autolysosomes (Avd) in HepG2 cells treated with or without IGF-1 (100 nM). Data are representative images of TEMs of three independent assays. Single arrows denote Avi; double arrows indicate Avd. Scale bar, 500 nm. The ratio of autophagic vacuole area to the cytoplasmic area was determined by morphometric analysis. Data are means±s.e.m. (e) TRB3-silenced cells were treated with IGF-1 (100 nM) for 12 h. Expression of indicated proteins was detected by immunoblotting. Data are representatives of four independent assays. (f) TRB3-silenced HepG2 cells were treated with bafilomycin (left) or MG132 (right) for 12 h. Indicated proteins were detected by immunoblotting. […] The cells were treated with or without IGF-1 for 12 h and the expression of Ub^G76V-GFP was immunoblotted with anti-GFP antibody (Ab; left) or detected with flow cytometry (right). […] The proliferative and invasive capacities of cells were evaluated with Edu (h) and transwell assays (i). Statistical significance was determined with one-way analysis of variance (ANOVA); *P<0.05; **P<0.01; ***P<0.001. […]

TRB3 = target: T1, TRB3 (Homo sapiens, UniProt Q96RU7); test: Surface plasmon resonance binding of peptides to immobilized TRB3
T1 sequence (Q96RU7 1-358): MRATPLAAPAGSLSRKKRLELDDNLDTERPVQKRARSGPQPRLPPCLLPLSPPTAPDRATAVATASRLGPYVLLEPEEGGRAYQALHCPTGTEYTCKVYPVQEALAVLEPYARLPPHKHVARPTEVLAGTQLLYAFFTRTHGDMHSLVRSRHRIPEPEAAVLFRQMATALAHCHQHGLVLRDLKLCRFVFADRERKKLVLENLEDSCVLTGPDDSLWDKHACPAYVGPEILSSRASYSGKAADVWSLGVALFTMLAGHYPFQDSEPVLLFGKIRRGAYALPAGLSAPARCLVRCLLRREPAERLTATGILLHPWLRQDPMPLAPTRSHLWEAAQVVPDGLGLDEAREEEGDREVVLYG
Method: Binding kinetics between TRB3 and control, P2, P4, P6, P7, P8, P9, P11, A1, A2 or A3 were measured by a surface plasmon resonance assay using BIAcore T200 instrument (GE Healthcare, Pittsburgh, USA)[53]. The dissociation constant (KD) was calculated according to the BIA-evaluation software.

p62 = test: Cycloheximide chase of p62 degradation in HepG2 cells; format: cell-based, human; details: CHX 10 μg ml^−1 after insulin/IGF-1 stimulation, 8.5 h without stimulation, three independent assays, Fig. 4b
Method: Figure 4 TRB3 mediates insulin/IGF-induced p62 accumulation. (a) HepG2 cells were treated with indicated stimulators for 12 h. The mRNAs were determined with RT–PCR using specific primer sets. Data are means±s.e.m of three independent assays. (b) HepG2 cells were incubated with cycloheximide (CHX) (10 μg ml^−1) for indicated time points after insulin/IGF-1 stimulation. Indicated proteins were detected with immunoblotting. Data are means±s.e.m of three independent assays. (c) Control or TRB3-silenced cells were incubated with CHX (10 μg ml^−1) for indicated time points after IGF-1 stimulation. Cell lysates were isolated for immunoblotting. Data are means±s.e.m of three independent assays. (d) HepG2 cells expressing p62- or control-siRNA were co-transfected with Ub^G76V-GFP. The cells were treated with IGF-1 for 12 h. The cell lysates were isolated for immunoblotting. Data are representative of immunoblots of three independent assays. (e) Cells expressing control-shRNA or TRB3-shRNAs were transfected with Ub^G76V-GFP plasmid plus or minus with p62-DDK-expressing plasmid. The lysates were isolated for immunoblotting. […] After 24 h, the cells were treated with IGF-1 for 12 h, and the flux rate of autophagy was detected with Live Cell Imaging Microscopy. […] Indicated proteins were evaluated with immunoblotting. […] Statistical significance was determined with Student's t-test; *P<0.05. […]

[2] = SPR, BIAcore T200, peptide passed over TRB3 immobilized on CM5 sensor chip, alanine scan of A2, Fig. 6f, read-out: KD

Molecule: Cn1cnc(N)c2ncnc1-2 [3-MA]
- effect on antitumour actions of TRB3 deficiency (B16-F10 cells): overturn the antitumour actions of TRB3 deficiency

Molecule: CC(C)C[C@@H](C=O)NC(=O)[C@H](CC(C)C)NC(=O)[C@H](CC(C)C)NC(=O)OCc1ccccc1 [MG132] (Cbz-Leu-Leu-Leu-aldehyde)
- effect on antitumour actions of TRB3 deficiency (B16-F10 cells): overturn the antitumour actions of TRB3 deficiency
- turnover of COX2, Twist and MMP-2 [1]: inhibited

Molecule: CO/C1=C\C(C)=C\[C@@H](C)[C@@H](O)[C@@H](C)C/C(C)=C/C=C/[C@H](OC)[C@@H]([C@@H](C)[C@@H](O)[C@H](C)[C@@]2(O)C[C@@H](O)[C@H](C)[C@@H](C(C)C)O2)OC1=O [bafilomycin]
- turnover of COX2, Twist and MMP-2 [1]: not inhibited
- turnover of LC3, EGFR, c-Myc, MMP1 and p62 [1]: inhibited

Molecule: AGWLTRLLQTK [M1]
- Kd (TRB3): 1640 nM

Molecule: GAWLTRLLQTK [M2]
- Kd (TRB3): 402 nM

Molecule: GGALTRLLQTK [M3]
- Kd (TRB3): 3590 nM

Molecule: GGWATRLLQTK [M4]
- Kd (TRB3): 4320 nM

Molecule: GGWLARLLQTK [M5]
- Kd (TRB3; [2]): 110 nM

Molecule: GGWLTALLQTK [M6]
- Kd (TRB3; [2]): 0.142 nM

Molecule: GGWLTRALQTK [M7]
- Kd (TRB3; [2]): 11800 nM

Molecule: GGWLTRLLATK [M9]
- Kd (TRB3): 35600 nM

Molecule: GGWLTRLLQAK [M10]
- Kd (TRB3): 381 nM

Molecule: GGWLTRLLQTA [M11]
- Kd (TRB3): 73.1 nM

Molecule: IGF-1
- half-life of p62 degradation (p62): 24 h

Molecule: insulin
- half-life of p62 degradation (p62): 24 h

Source: article PMC4557121, “TRB3 links insulin/IGF to tumour promotion by interacting with p62 and impeding autophagic/proteasomal degradations” (Nature Communications, 2015)
